This assay has as its target Prothrombin (Homo sapiens, UniProt P00734). Put plainly: Inhibition of thrombin (unknown origin).

In general, pKi refers to the negative decadic logarithm of the Ki, by convention in mol/L. A high value points to a low Ki.

pKi: −log10 of the molar value.

Compound `N=C(N)c1ccc(CNC(=O)CN2C(=O)C(NS(=O)(=O)c3ccc4c(c3)CCO4)CCc3ccccc32)cc1` (configuration not stated) gave a pKi of 7.80.
With `COc1ccc(OC)c(S(=O)(=O)NC2CCCCN(CC(=O)NCc3ccc(C(=N)N)cc3)C2=O)c1` (configuration not stated) the figure was 8.00.

These data come from ChEMBL document CHEMBL2380282, “CROSS: an efficient workflow for reaction-driven rescaffolding and side-chain optimization using robust chemical reactions and available reagents” (J Med Chem, 2013).
